Consider two compounds from US9777010B2, “Substituted 4-phenylpiperidines, their preparation and use” (THE TRUSTEES OF COLUMBIA UNIVERSITY IN THE CITY OF NEW YORK, priority 2014, dated 2017).

One experiment concerns the target RBP4-TTR interaction (Homo sapiens (Human), UniProt P02753). Briefly: TR-FRET (HTRF) assay for retinol-induced RBP4-TTR interaction. Type of experiment: biochemical. The conditions noted are these: in the presence of 1 μM retinol; read-out: HTRF assay for antagonists of RBP4-TTR interaction: IC50. The protocol:
Binding of a desired RBP4 antagonist displaces retinol and induces hindrance for RBP4-TTR interaction resulting in the decreased FRET signal (FIG. 7). Bacterially expressed MBP-RBP4 and untagged TTR were used in this assay. […] Following cell lysis, recombinant RBP4 was purified from the soluble fraction using the ACTA FPLC system (GE Healthcare) equipped with the 5-ml the MBP Trap HP column. Human untagged TTR was purchased from Calbiochem. […] HTRF assay was performed in white low volume 384 well plates (Greiner-Bio) in a final assay volume of 16 μl per well. The reaction buffer contained 10 mM Tris-HCl pH 7.5, 1 mM DTT, 0.05% NP-40, 0.05% Prionex, 6% glycerol, and 400 mM KF. […] Titration of test compounds in this assay was conducted in the presence of 1 μM retinol. All reactions were assembled in the dark under dim red light and incubated overnight at +4° C. wrapped in aluminum foil. TR-FRET signal was measured in the SpectraMax M5e Multimode Plate Reader (Molecular Device). […] The TR-FRET signal was expressed as the ratio of fluorescence intensity: Flu665/Flu620×10,000.

A further experiment deals with serum RBP4 and retinol. The conditions noted are these: in vivo; cited from earlier work.

By IC50 is commonly meant the concentration at which inhibition is half-maximal.

As for `COCCN1CCc2c(C(=O)N3CCC(c4cccc(F)c4C(F)(F)F)CC3)n[nH]c2C1` [Compound 77, (4-(3-Fluoro-2-(trifluoromethyl)phenyl)piperidin-1-yl)(6-(2-methoxyethyl)-4,5,6,7-tetrahydro-3aH-pyrazolo[3,4-c]pyridin-3-yl)methanone], at RBP4-TTR interaction, the IC50 is 1.62 nM.
On to `CC1=C(/C=C/C(C)=C/C=C/C(C)=C/C(=O)Nc2ccc(O)cc2)C(C)(C)CCC1` [fenretinide, N-(4-hydroxy-phenyl)retinamide], for which the “serum RBP4 and retinol” value in the experiment on serum RBP4 and retinol was “reduce serum RBP4 and retinol”.
